# Source: paper PMC7617459, “Comparative Evaluation and Profiling of Chemical Tools for the Nuclear Hormone Receptor Family 2” (ACS pharmacology & translational science, 2025)
# Read-outs that look alike come from different tables or passages of the source.
# Tests used:
# TLX [1] = target: T1, TLX (Homo sapiens, UniProt Q9Y466); test: Gal4-hybrid reporter gene assay TLX; type: cell-based; conditions: selected test concentration (Figure 3)
# T1 construct: encoding the hinge region and the LBD of the canonical isoform of the respective human nuclear receptors; expressed in transfected cells; host or cells: HEK293T
# T1 sequence (Q9Y466 155-383 limits assumed): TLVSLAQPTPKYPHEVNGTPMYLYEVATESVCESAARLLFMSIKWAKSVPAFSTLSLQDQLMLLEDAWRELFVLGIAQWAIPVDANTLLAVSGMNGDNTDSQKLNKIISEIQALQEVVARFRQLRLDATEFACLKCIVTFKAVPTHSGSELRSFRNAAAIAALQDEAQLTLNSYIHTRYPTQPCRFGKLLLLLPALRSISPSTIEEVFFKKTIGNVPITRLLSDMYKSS
# TLX [2] = conditions: DSF assays; cited from earlier work
# TLX [3] = conditions: reporter gene assay; read-out: EC50; cited from earlier work
# TLX-regulated genes = conditions: human glioblastoma cells (T98G), qRT-PCR; cited from earlier work
# TLX expression = conditions: cited from earlier work
# HEK293T cells = conditions: cited from earlier work
# [4] = microsomes; cited from earlier work
# PNR (NR2E3) = target: T2, PNR (NR2E3) (Homo sapiens, UniProt Q9Y5X4); test: Gal4-hybrid reporter gene assay PNR; type: cell-based; conditions: selected test concentration (Figure 3)
# T2 construct: encoding the hinge region and the LBD of the canonical isoform of the respective human nuclear receptors; expressed in transfected cells; host or cells: HEK293T
# T2 sequence (Q9Y5X4 169-410 limits assumed): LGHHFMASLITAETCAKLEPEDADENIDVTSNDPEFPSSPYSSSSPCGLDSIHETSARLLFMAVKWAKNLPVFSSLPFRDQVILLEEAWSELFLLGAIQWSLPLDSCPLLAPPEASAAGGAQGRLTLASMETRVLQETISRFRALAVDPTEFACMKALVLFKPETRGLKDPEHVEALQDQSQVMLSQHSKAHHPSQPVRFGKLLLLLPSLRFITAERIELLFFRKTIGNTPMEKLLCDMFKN
# Procedure: Gal4-hybrid reporter gene assays were performed as described previously using the plasmids pFA-CMV-hTHRα-LBD,[170] pFA-CMV-hRARα-LBD,[171] pFA-CMV-hPPARα-LBD,[172] pFA-CMV-hPPARγ-LBD,[172] pFA-CMV-hPPARδ-LBD,[172] pFA-CMV-revERBα-LBD,[158] pFA-CMV-hRORα-LBD,[173] pFA-CMV-hLXRα-LBD,[118] pFA-CMV-hFXR-LBD,[174] pFA-CMV-hVDR-LBD,[171] pFA-CMV-hCAR-LBD,[171] pFA-CMV-hHNF4α-LBD,[110] pFA-CMV-hRXRα-LBD,[175] pFA-CMV-hTR2-LBD,[102] pFA-CMV-hTR4-LBD,[102] pFA-CMV-hTLX-LBD,[102] pFA-CMV-hNR2E3-LBD,[102] pFA-CMV-hNur77-LBD,[176] pFA-CMV-hSF1-LBD[158] encoding the hinge region and the LBD of the canonical isoform of the respective human nuclear receptors. pFR-Luc (Stratagene, La Jolla, CA, USA) was used as a reporter plasmid, and pRL-SV40 (Promega, Madison, WI, USA) was used for normalization of transfection efficiency and cell growth. HEK293T cells (German Collection of Microorganisms and Cell Culture GmbH, DSMZ) were cultured in Dulbecco’s modified Eagle’s medium (DMEM), high glucose supplemented with 10% fetal calf serum (FCS), sodium pyruvate (1 mM), penicillin (100 U/mL), and streptomycin (100 μg/mL) at 37 °C and 5% CO2 and seeded in 96-well plates (3 × 10^4 cells/well). The medium was changed to Opti-MEM without supplements, and the cells were transiently transfected with one pFA-CMV-hNR-LBD clone, pFR-Luc, and pRL-SV40 using Lipofectamine LTX reagent (Invitrogen, Thermo Fisher Scientific) according to the manufacturer’s instructions. Five hours after transfection, cells were incubated with the test compounds in Opti-MEM supplemented with penicillin (100 U/mL), streptomycin (100 μg/mL), and 0.1% DMSO. Each sample was set up in duplicates and tested in at least three independent experiments. After 16 h incubation, luciferase activity was measured using the Dual-Glo Luciferase Assay System (Promega) according to the manufacturer’s protocol on a Tecan Spark luminometer (Tecan Deutschland GmbH, Crailsheim, Germany). Firefly luminescence was divided by Renilla luminescence and multiplied by 1000 resulting in relative light units (RLUs) to normalize for transfection efficiency and cell growth. Fold activation was obtained by dividing the mean RLU of the test compound by the mean^a RLU of the untreated control, and relative activation was calculated by dividing the fold activation of a test sample by the fold activation of the respective reference agonist. Antagonistic effects were evaluated by coincubation of the test compound with the respective reference ligand.
# nuclear receptors = test: Selectivity profiling in Gal4-hybrid reporter gene assay panel; type: cell-based, human; conditions: at active concentration
# Procedure: Compounds were tested at concentrations around EC90 according to the literature or at the highest nontoxic concentration (from the multiplex toxicity assay). […] (b) Selectivity profiling of NR2 modulators in a representative panel of nuclear receptors outside the NR2 family. […] Effects <5% of the respective reference ligands were considered as not relevant and omitted. Only effects are shown that are statistically significant against VP16 ctrl (Figure S3); n = 3.
# COS-7 cells = test: Multiplex toxicity assay; type: cell-based; conditions: 24 h, at active concentration
# Procedure: COS-7 cells (DSMZ #ACC 60) were cultured at 37°C and 5% CO2 in DMEM high glucose medium supplemented with sodium pyruvate (1 mM), penicillin (100 U/mL), streptomycin (100 µg/mL), and 10% fetal calf serum (FCS). After aspirating the wells, the cells were seeded at 1x10^5 cells per well in complete culture medium. […] Each sample was prepared in at least 4 biologically independent replicates. After incubation for 24 h, the wells were aspirated and incubated for 30 min with stimulation medium containing 1 µM NucView® 405 fluorogenic caspase-3 substrate (#10405, Biotium, Fremont, USA) and Live-or-Dye Nuc-Fix Red (0.05x, Biotium, Inc., Fremont, CA, 1691 USA) to detect apoptosis and necrosis, respectively. After incubation, a total of 6 fluorescence images per well at 10x magnification were taken to detect NucView®-positive (Ex: 381–400 nm, Em: 414–450 nm) and Live-or-Dye-positive cells (Ex: 543−566 nm, Em: 580−611 nm) using on a Tecan Spark Cyto (Tecan Group AG). Reference readings for background correction and detection of auto-fluorescence were taken at 414–450 nm prior to staining. Thereafter, wells were aspirated, the cells were incubated for 3 h with 90 µL culture medium (0.2% FCS) and 10 µL Cell Counting Kit-8 solution (CCK-8, MedChem Express #HY-K0301), and absorbance was measured at 1, 2, and 3h of incubation at 450 nm on a Tecan Spark Cyto to assess metabolic activity of the cells. Before drug administration, after the first medium exchange, 24 h after drug administration, and after fluorescence imaging cell confluence was assessed using the Tecan Spark Cyto, to account for changes in cell confluence due to drug administration and cell handling. The number of apoptotic cells, metabolic activity, and changes in cell confluence in response to drug treatment were all normalized to the vehicle control of each biological replicate individually.
# ATF6 = ATF6 activity assay; type: cell-based; conditions: tunicamycin treated Hela ATF6 reporter cells
# From the text: Next, we evaluated the potential impact of the NR2 modulator set on endoplasmic reticulum (ER) stress in an ATF6 activity assay (Fig. 4b). The activating transcription factor 6 (ATF6) participates in the unfolded protein response and is activated under ER stress.[164] Tunicamycin-induced ATF6 activity was not affected by RXR and TLX modulators but was reduced by the inverse PNR agonists 22 and 23.
# Hela cells containing a Renilla luciferase reporter gene for ATF6 activity (ATF6 Leeporter™ Luciferase Reporter-HeLa Cell Line, Abeomics Inc.; #14-138ACL) were cultured in DMEM supplemented with 10% heat-inactivated FCS, penicillin (100 U/mL), streptomycin (100 μg/mL) and puromycin (3 µg/mL) at 37°C and 5% (v/v) CO2 and seeded in 96-well plates (1 × 10^5 per well). After 24 h, the cells were incubated with the test compounds solubilized with 0.1% DMSO in the same medium without puromycin. After 4 h of incubation, tunicamycin (100 ng/mL) was added. After another 18 h of incubation, cells were assayed for renilla luminescence using DualGlo reagent (Promega) on a Tecan SPARK Cyto (Tecan). Test samples were normalized to the 0.1% DMSO control.
# PNR [5] = conditions: reporter gene assay; cited from earlier work
# Gal4-VP16 = tested on: Gal4-VP16; set-up: method as in PMID 16834531; conditions: cited from earlier work
# rhodopsin expression = tested on: rhodopsin expression; set-up: method as in PMID 29148976, PMID 27893103; conditions: cited from earlier work; for rhodopsin expression: murine retinal cells, immunofluorescence and qRT-PCR
# [6] = cited from earlier work
# [7] = set-up: method as in PMID 31298602, PMID 30702885; conditions: cited from earlier work
# PNR [8] = target: PNR; set-up: method as in PMID 29148976; conditions: ITC, cited from earlier work
# NR2E3 = tested on: NR2E3; set-up: method as in PMID 16879962; conditions: reporter gene assay, cited from earlier work
# human insulin promoter = conditions: insulin promoter assay, cited from earlier work
# HNF4α [9] = target: HNF4α; set-up: method as in PMID 22840769; conditions: cited from earlier work
# [10] = tested on: HNF4α and a set of its target genes; set-up: method as in PMID 22840769; conditions: T6PNE cells; cited from earlier work
# HNF4α [11] = target: T3, HNF4α (Homo sapiens, UniProt P41235); test: Gal4-hybrid reporter gene assay HNF4α; conditions: 3 µM, HEK293T
# T3 sequence (P41235 147-377 limits assumed): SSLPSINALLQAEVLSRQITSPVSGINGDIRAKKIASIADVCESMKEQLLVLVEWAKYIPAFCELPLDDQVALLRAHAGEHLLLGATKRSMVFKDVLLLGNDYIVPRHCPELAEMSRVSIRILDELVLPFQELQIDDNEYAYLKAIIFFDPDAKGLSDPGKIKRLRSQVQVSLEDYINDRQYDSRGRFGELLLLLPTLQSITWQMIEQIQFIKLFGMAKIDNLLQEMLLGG
# COUP-TF2 = tested on: COUP-TF2; set-up: method as in PMID 32494682; conditions: reporter gene assay; cited from earlier work
# [12] = tested on: HNF4α, RXRα, PPARα, LXRα, GR, PR, ER, RAR, RORγ, AR, and COUP-TF1; set-up: method as in PMID 32494682; conditions: cited from earlier work
# [13] = tested on: COUP-TF2 target genes FOXM1 and CDK1; set-up: method as in PMID 32494682; conditions: prostate cancer cells; cited from earlier work
smiles,measurement,setting,value
Cc1cc(C(=O)N2CCN(C(c3ccccc3)c3ccccc3)CC2)nn1C [compound 15],TLX modulation,TLX [1],not observed
same,Kd,TLX [2],650 nM
same,EC50,TLX [3],1000 nM
same,"SIRT, SLC1a1 and p21 induction",TLX-regulated genes,trend toward SIRT and SLC1a1 but not p21 induction
same,TLX expression,TLX expression,not affected
same,toxicity in WST-1 assay,HEK293T cells,Low toxicity
same,t1/2 against microsomal degradation,[4],< 15 min
Cc1cc(C)cc(NC(=O)CCc2nc3sc4c(c3c(=O)[nH]2)CCCC4)c1 [compound 22],PNR modulation,PNR (NR2E3),confirmed albeit with rather low efficacy
same,selectivity over other nuclear receptors,nuclear receptors,Favorable selectivity profiles
same,cytotoxicity,COS-7 cells,lack of cytotoxicity
same,tunicamycin-induced ATF6 activity,ATF6,reduced
same,IC50,PNR [5],250 nM
same,activity in control experiments using Gal4-VP16,Gal4-VP16,inactive
same,rhodopsin expression,rhodopsin expression,dose-dependent reduction
"C=C(c1ccc(C(=O)O)cc1)c1cc2c(cc1C)C(C)(C)CCC2(C)C [compound 6, bexarotene]",adverse effects associated with clinical use,[6],"elevated triglyceride and cholesterol levels, leukopenia, hypothyroidism, and an increased risk of acute pancreatitis"
same,lipophilicity,[7],highly lipophilic
COc1cc2nc(CN3CC=C(c4ccccc4)CC3)nc(O)c2cc1OC [compound 23],PNR modulation,PNR (NR2E3),confirmed albeit with rather low efficacy
same,selectivity over other nuclear receptors,nuclear receptors,Favorable selectivity profiles
same,cytotoxicity,COS-7 cells,lack of cytotoxicity
same,tunicamycin-induced ATF6 activity,ATF6,reduced
same,IC50,PNR [5],70 nM
same,activity in control experiments using Gal4-VP16,Gal4-VP16,inactive
same,Rho mRNA expression,rhodopsin expression,decreased
same,rhodopsin expression,rhodopsin expression,dose-dependent reduction
same,Kd,PNR [8],67 µM
same,Kd,PNR [8]; listed as Photoregulin3 (23),64 µM
O=C(Nc1ccc(-c2nc3ccc(NC(=O)C4CC4)cc3[nH]2)cc1)c1ccccc1Cl [compound 24],EC50,NR2E3; read-out: EC50 (first value of cell),141 nM
same,EC50,NR2E3; read-out: EC50 (second value of cell),35 nM
Cc1nc2ccccc2n1S(=O)(=O)c1cc([N+](=O)[O-])ccc1Cl [compound 1],IC50,human insulin promoter,900 nM
same,IC50,human insulin promoter; listed as BIM5078 (1),930 nM
same,Kd,HNF4α [9]; Try/Trp fluorescence quenching assays,12 nM
same,EC50,"HNF4α [9]; direct binding, read-out: EC50 of quenching of intrinsic Tyr/Trp fluorescence of HNF4α",11.9 nM
same,expression of HNF4α and a set of its target genes,[10],suppress the expression
same,effects on HNF4 activity,HNF4α [11],no effects
COc1ccc(CCNc2ncnc3sccc23)cc1OC [compound 28],IC50,COUP-TF2,2800 nM
same,interaction with related NRs in pulldown assay,[12],no relevant interaction
same,expression of COUP-TF2 target genes FOXM1 and CDK1,[13],altered expression
